The test system of one data set is Euphorbia helioscopia. The data set is described as follows: Activity assay of compositions, post-emergence spray of stems and leaves. It counts as in vivo. As to conditions: 21 days. From the text: The required active ingredient B was purchased from a reagent company or a technical material manufacturer or synthesized by a conventional method. The active ingredient A was Compound 74 in Table 1. The technical materials were all dissolved with acetone solvents and diluted with aqueous solution of 0.1% Tween® 80 emulsifier, which should be used immediately after dilution.
(§1) Weeds were cultivated by a pot culture method. […] Weed seeds with plump and uniform grains were selected, soaked in lukewarm water at 25° C. for 6 hours, and accelerated to germinate in a 28° C. biochemical incubator (in darkness). The weed seeds that had just germinated were evenly placed on the surface of the soil and then covered with 0.5-1 cm soil according to the sizes of seeds.
The weeds were cultured in a controllable sunlight greenhouse at 20-30° C., in natural light, and with relative humidity of 57%-72%. The soil was loam with an organic matter content of 1.63%, a pH value of 7.1, alkali-hydrolyzable nitrogen of 84.3 mg/kg, rapidly available phosphorus of 38.5 mg/kg, and rapidly available potassium of 82.1 mg/kg.
(§2) Each treatment was repeated 4 times for 3 pots. Each pot was seeded with 20 weed seeds.
(§3) The drugs were applied once in total in the experiment. When at the stage of 1.5-2 leaves, the weeds were thinned out to maintain 10 strains per pot. Thirty strains were kept in each treatment and then continued to be cultured until the Erigeron canadensis reached 10 cm tall and other weeds in their 3-4 leaf stage for further treatment.
(§4) The well-cultured test materials were evenly placed on a 0.5 m^2 platform and foliage-sprayed by the 3WP-2000-type walking spray tower at a dosage of […] and a spray pressure of 0.3 MPa. After all the drug solution was sprayed, the air valve was closed. And 30 seconds later, the door of the spray tower was opened, and the nutritional bowl was taken out. Next, the air valve was opened, and the spray tube was cleaned by spraying 50 ml of water. The test materials were transferred to and routinely cultured in a greenhouse after the treatment.
(§5) A method for investigating absolute numbers was employed. The whole seedlings of the survival weeds were cut along the soil surface with a blade, and the fresh weight of the weeds was weighed by an analytical balance. For dead weeds, the fresh weight thereof was considered zero.
(§6) The investigation was performed 21 days after the treatment for once in total.
The theoretical fresh weight inhibition rate of a mixed combination of each treatment was calculated by the Gowing method (E0=X+Y−X*Y/100). Then compared with the measured inhibition rate (E), the type of the combined action of the combination of the two on weeds was evaluated, which was a synergistic effect when E−E0>10; an antagonistic effect when E−E0<−10%; an additional effect when −10≤E−E0≤[…]. An optimal ratio was determined according to factors such as the actual control effects, characteristics of herbicides, balance of the formulation, etc. In the formula, X represents the fresh weight inhibition rate of the active ingredient A in a dosage of P; Y represents the fresh weight inhibition rate of the active ingredient B in a dosage of Q. The statistical results are shown in Table 5 below.

Data set [1] deals with Veronica. The description is as above. It is filed as in vivo. Conditions: 21 days. As for the experimental part:
The required active ingredient B was purchased from a reagent company or a technical material manufacturer or synthesized by a conventional method. […] The technical materials were all dissolved with acetone solvents and diluted with aqueous solution of 0.1% Tween® 80 emulsifier, which should be used immediately after dilution.
as §1, §2, §3, §4, §5, §6
The theoretical fresh weight inhibition rate of a mixed combination of each treatment was calculated by the Gowing method (E0=X+Y−X*Y/100). […] An optimal ratio was determined according to factors such as the actual control effects, characteristics of herbicides, balance of the formulation, etc. In the formula, X represents the fresh weight inhibition rate of the active ingredient A in a dosage of P; Y represents the fresh weight inhibition rate of the active ingredient B in a dosage of Q. The statistical results are shown in Table 5 below.

Another data set has as its system Bidens tripartita. As to the kind of experiment: Control effect evaluation on weeds in paddy fields. It is filed as in vivo. As to conditions: 30 g a.i./ha, paddy pot, 14th day after treatment, seeds resistant to pyrazosulfuron-ethyl. An excerpt:
(§7) The criteria for activity levels of plant damage (i.e., growth control rate) are as follows: • Level 9: completely dead; • Level 8: growth control rate is greater than or equal to 90% and less than 100%; • Level 7: growth control rate is greater than or equal to 80% and less than 90%; • Level 6: growth control rate is greater than or equal to 70% and less than 80%; • Level 5: growth control rate is greater than or equal to 50% and less than 70%; • Level 4: growth control rate is greater than or equal to 30% and less than 50%; • Level 3: growth control rate is greater than or equal to 20% and less than 30%; • Level 2: growth control rate is greater than or equal to 10% and less than 20%; • Level 1: growth control rate is less than 10%; • Level 0: no effect.
(§8) The above growth control rates are fresh weight control rates.
(§9) After paddy field soil was loaded into a 1/1,000,000 ha pot, the seeds of Monochoria vaginalis, Pontederia korsakowii and Bidens tripartita were sowed and gently covered with soil, then left to stand in a greenhouse with water storage of 0.5-1 cm deep. The tuber of Sagittaria trifolia was planted on the next day or 2 days later. The water storage was kept at a depth of 3-4 cm thereafter. When the Monochoria vaginalis, Pontederia korsakowii and Bidens tripartita reached their 0.5-leaf stages and the Sagittaria trifolia reached the primary leaf stage, WP or SC aqueous dilutions of the compounds of the present invention formulated according to customary formulation methods were homogeneously dripped for treatment to the specified effective amount using pipettes.
(§10) The effects were evaluated according to the above-mentioned criteria for activity levels.

For another data set, the system named is Monochoria vaginalis. The data set is described as follows: Control effect evaluation on weeds in paddy fields. It is filed as in vivo. Conditions: 30 g a.i./ha, paddy pot, 14th day after treatment, seeds resistant to pyrazosulfuron-ethyl.
From the text: as §7, §8, §9, §10

In the next data set the test system is Pontederia korsakowii. As to the kind of experiment: Control effect evaluation on weeds in paddy fields. It is filed as in vivo. As to conditions: 30 g a.i./ha, paddy pot, 14th day after treatment, seeds resistant to pyrazosulfuron-ethyl.
From the text: as §7, §8, §9, §10

The subject of another data set is Paddy rice. As to the kind of experiment: Post-emergence test, crop safety. Conditions: in vivo, 3 weeks.
From the text: as §7, §8
(§11) Monocotyledonous and dicotyledonous weed seeds (Descurainia sophia, Capsella bursa-pastoris, Abutilon theophrasti, Galium spurium, Stellaria media, Lithospermum arvense, Rorippa indica, Alopecurus aequalis, Alopecurus japonicus, Eleusine indica, Beckmannia syzigachne, Sclerochloa dura, Erigeron canadensis, Phleum paniculatum, Veronica, Bromus japonicus, Aegilops tauschii, Phalaris arundinacea, Amaranthus retroflexus, Chenopodium, Commelina communis, Cichorium endivia, Convolvulus arvensis, Cirsium arvense, Solanum nigrum, Acalypha australis, Digitaria sanguinalis, Echinochloa crusgalli, Setaria viridis, Setaria pumila, Leptochloa chinensis, Monochoria vaginalis, Sagittaria trifolia, Schoenoplectiella juncoides, Cyperus rotundus, Cyperus iria, Cyperus difformis, Fimbristylis, Portulaca oleracea, Xanthium sibiricum, Ipomoea nil, Eschenbachia japonica, etc.) and major crop seeds (wheat, maize, paddy rice, soybean, cotton, oilseed rape, millet, sorghum, potato, sesame, castor plant, Chinese cabbage, radish, etc.) were placed in plastic pots filled with soil and then covered with 0.5-2 cm of soil to allow them to grow in a favorable greenhouse environment. Two weeks after sowing, the test plants were treated at the stage of 2-3 leaves. The test compounds of the present invention were individually dissolved with acetone, then added with Tween® 80, with 1.5 L/ha of methyl oleate emulsifiable concentrate as a synergist, diluted into solution of a certain concentration using a certain amount of water, and sprayed to plants using a spray tower. After drug application, the experimental results on weeds were collected after 3 weeks of cultivation in a greenhouse. The compounds were applied at 120, 60, 30, and 15 g a.i./ha in triplicate, and the results were averaged.

A further data set has as its system Wheat. The data set is described as follows: Post-emergence test, crop safety. Conditions: in vivo, 3 weeks.
From the text: as §7, §8, §11

Data set [2] has as its system Veronica. The data set is described as follows: Post-emergence test on weeds. It counts as in vivo. Further details: key: 0 = no effect, 9 = completely dead (levels by growth control rate). As to conditions: 30 g a.i./ha, 3 weeks after application.
From the text: as §7, §8, §11

As to `CC1(C)CON(Cc2ccc(Cl)cc2Br)C1=O`, the “Control effect of B applied alone in a corresponding dose (%)” value (from here on “Control effect of B applied alone … (%)”) in the data set with Euphorbia helioscopia (B 60 g a.i./ha) is recorded as 25.7%; in the data set on Euphorbia helioscopia (B 120 g a.i./ha) it was 44.6%.
For `COc1ncc(F)c2nc(S(=O)(=O)Nc3c(F)cccc3F)nn12` [Florasulam, florasulam], the “Control effect of B applied alone … (%)” value in the data set on Veronica [1] (B 3 g a.i./ha) came out at 15.7%; in the data set on Veronica [1] (B 6 g a.i./ha), 28.1%.
Consider `CCOC(=O)c1cnn(C)c1S(=O)(=O)NC(=O)Nc1nc(OC)cc(OC)n1` [pyrazosulfuron-ethyl, reference compound], for which the “activity level, Bidens tripartita” value with Bidens tripartita was 4 (Level 4: growth control rate is greater than or equal to 30% and less than 50%). In addition, the “activity level, Monochoria vaginalis” value with Monochoria vaginalis is listed as 1 (Level 1: growth control rate is less than 10%). For the same molecule, the “activity level, Pontederia korsakowii” value with Pontederia korsakowii was 2 (Level 2: growth control rate is greater than or equal to 10% and less than 20%).
In the case of `O=C(O)c1nc(Cl)ccc1Cl` [Clopyralid, clopyralid], the “Control effect of B applied alone … (%)” value in the data set on Veronica [1] (B 45 g a.i./ha) was found to be 12.4%; with Veronica [1] (B 90 g a.i./ha) it was 33.3%.
Consider `CCn1ncc(C(=O)c2ccc(S(C)(=O)=O)c(COCC(F)(F)F)c2Cl)c1OC(=O)c1cn(C)nc1C` [Fenpyrazone, fenpyrazone], for which the “Control effect of B applied alone … (%)” value is given as 34.3% with Euphorbia helioscopia (B 15 g a.i./ha) and 60.0% in the data set on Euphorbia helioscopia (B 30 g a.i./ha).
With `COc1c(Cl)ccc(-c2nc(C(=O)OCc3ccccc3)c(Cl)c(N)c2F)c1F` [Florpyrauxifenbenzyl, florpyrauxifen-benzyl], the “Control effect of B applied alone … (%)” value was 20.1% with Veronica [1] (B 3 g a.i./ha) and 45.8% with Veronica [1] (B 6 g a.i./ha).
`Cc1cc(Cl)ccc1OCC(=O)OCCCCCC(C)C` [MCPA-isooctyl]: the entries for the “Control effect of B applied alone … (%)” value in the data set with Veronica [1] (B 150 g a.i./ha) and in the data set with Veronica [1] (B 300 g a.i./ha) were 23.5% and 40.8%, respectively.
Turning to `Nc1c(Cl)c(Cl)nc(C(=O)O)c1Cl` [Picloram, picloram], the “Control effect of B applied alone … (%)” value turned out to be 15.7% in the data set on Veronica [1] (B 15 g a.i./ha) and 30.8% in the data set on Veronica [1] (B 30 g a.i./ha).
With `Cc1cc(C)n(Cc2c(S(C)(=O)=O)ccc(C(=O)c3c(C)nn(C)c3OC(=O)c3cn(C)nc3C)c2Cl)n1` [Tripyrasulfone, tripyrasulfone], the entries for the “Control effect of B applied alone … (%)” value in the data set with Euphorbia helioscopia (B 15 g a.i./ha) and with Euphorbia helioscopia (B 30 g a.i./ha) were 20.0% and 36.9%, respectively.
Turning to `CCCCCCC(C)OC(=O)COc1nc(F)c(Cl)c(N)c1Cl` (stereo not drawn) [Fluroxypyrmeptyl, fluroxypyr-meptyl], the “Control effect of B applied alone … (%)” value in the data set with Veronica [1] (B 60 g a.i./ha) is 20.3%; with Veronica [1] (B 120 g a.i./ha), 40.6%.
Consider `Cn1[nH]c(C2CC2)c(C(=O)c2ccc(C(F)(F)F)c(N3CCCCC3=O)c2Cl)c1=O` [Cypyrafluone, cypyrafluone], for which the “Control effect of B applied alone … (%)” value is given as 34.7% in the data set with Euphorbia helioscopia (B 15 g a.i./ha) and 55.2% in the data set on Euphorbia helioscopia (B 30 g a.i./ha).
For the molecule `CCOC(=O)Cn1c(=O)sc2cccc(Cl)c21` [Benazolinethyl, benazolin-ethyl], the “Control effect of B applied alone … (%)” value with Veronica [1] (B 75 g a.i./ha) is on record as 24.0%; with Veronica [1] (B 150 g a.i./ha), 35.2%.
Turning to `COc1c(N)nc(-c2ccc(Br)c(OC)c2F)nc1C(=O)SC` [Compound 221], the “activity level of plant damage (growth control rate), Paddy rice” value with Paddy rice was 0. Also, the “activity level of plant damage (growth control rate), Wheat” value in the data set with Wheat was 0. Also, in the data set on Veronica [2], the “activity level of plant damage (growth control rate), Veronica” value is 9.
`CCC[S@@+]([O-])c1c(C(F)(F)F)ccc(C(=O)Nc2nnc(C)o2)c1F`: the “Control effect of B applied alone … (%)” value is listed as 34.3% in the data set with Euphorbia helioscopia (B 15 g a.i./ha) and 55.4% in the data set on Euphorbia helioscopia (B 30 g a.i./ha).
`Cc1nn(C)cc1C(=O)Oc1c(C(=O)c2ccc(C(F)(F)F)cc2S(C)(=O)=O)c(C)nn1C` [Bipyrazone, bipyrazone]: the “Control effect of B applied alone … (%)” value in the data set with Euphorbia helioscopia (B 7.5 g a.i./ha) was 37.1%; in the data set on Euphorbia helioscopia (B 15 g a.i./ha), 55.8%.
For the molecule `Nc1cc(Cl)nc(C(=O)O)c1Cl` [Aminopyralid, aminopyralid], the “Control effect of B applied alone … (%)” value is listed as 18.0% in the data set with Veronica [1] (B 30 g a.i./ha) and 39.7% in the data set with Veronica [1] (B 60 g a.i./ha).
Take `COC(=O)c1nc(-c2ccc(Cl)c(OC)c2F)cc(N)c1Cl` [Halauxifenmethyl, halauxifen-methyl]: the “Control effect of B applied alone … (%)” value was determined as 22.8% in the data set on Veronica [1] (B 1.5 g a.i./ha) and 43.1% with Veronica [1] (B 3 g a.i./ha).

Values taken from patent publication US20260198497A1, “A BENZENE RING-SUBSTITUTED PYRIMIDINECARBOXYLIC ACID COMPOUND, PREPARATION METHOD THEREFOR, HERBICIDAL COMPOSITION AND APPLICATION THEREOF” (QINGDAO KINGAGROOT CHEMICAL COMPOUND CO., LTD., priority 2023, published 2026).
